# Source: paper PMC2677733 (International Journal of Biological Sciences, 2009)
# Target: T1, OlatOR1/OlatOR2 (Ostrinia latipennis, UniProt C1PHB5)
# T1 sequence (C1PHB5 1-424): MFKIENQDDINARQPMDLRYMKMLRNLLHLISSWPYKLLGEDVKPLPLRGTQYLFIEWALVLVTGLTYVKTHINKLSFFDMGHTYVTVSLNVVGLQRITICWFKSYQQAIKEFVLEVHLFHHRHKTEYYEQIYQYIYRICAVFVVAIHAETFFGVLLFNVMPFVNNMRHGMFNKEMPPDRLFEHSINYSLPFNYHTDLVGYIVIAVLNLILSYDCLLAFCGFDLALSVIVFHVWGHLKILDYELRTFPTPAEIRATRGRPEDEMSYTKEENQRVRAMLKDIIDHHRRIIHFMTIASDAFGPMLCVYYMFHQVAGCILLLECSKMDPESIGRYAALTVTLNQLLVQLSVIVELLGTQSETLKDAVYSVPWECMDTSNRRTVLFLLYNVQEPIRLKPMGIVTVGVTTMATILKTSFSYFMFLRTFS
# T1 sequence (C1PHA8 1-473 partner): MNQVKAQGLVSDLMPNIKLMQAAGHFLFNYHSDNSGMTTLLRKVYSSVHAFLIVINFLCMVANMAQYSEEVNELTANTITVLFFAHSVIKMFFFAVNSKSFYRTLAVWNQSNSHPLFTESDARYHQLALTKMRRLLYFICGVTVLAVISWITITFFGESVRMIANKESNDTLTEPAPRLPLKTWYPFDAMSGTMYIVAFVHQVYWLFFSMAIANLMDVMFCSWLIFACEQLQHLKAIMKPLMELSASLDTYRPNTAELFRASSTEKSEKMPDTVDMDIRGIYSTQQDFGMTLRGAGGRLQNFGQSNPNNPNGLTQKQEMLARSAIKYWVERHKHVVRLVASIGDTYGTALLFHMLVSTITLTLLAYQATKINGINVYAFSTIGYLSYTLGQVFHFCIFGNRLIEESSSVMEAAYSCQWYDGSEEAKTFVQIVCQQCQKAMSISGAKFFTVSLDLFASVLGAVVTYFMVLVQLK
# Test: two-electrode voltage clamp, Xenopus oocytes
# Type: cell-based
# Details: agonist, inward current; -80 mV; pH 7.6; 10 µM
row,Structure (SMILES),"two-electrode voltage clamp, Xenopus oocytes"
1,"CC/C=C/CCCCCCCCCCO [E11-14:OH, (E)-11-tetradecenol]","OscaOR1 and OlatOR1, strongly responded to E11-14:OH"
2,CCCC/C=C\CCCCCCCCCCOC(C)=O [Z11-16:OAc],OlatOR1/OlatOR2 cells were found to show exactly the same response pattern as OscaOR1/OscaOR2 cells
